Data from paper PMC4311242 (2015).

What was measured:
[1] = tested on: kanamycin-binding DNA aptamer (DNA, aptamer) TGGGGGTTGAGGCTAAGCCGA; experiment: TO fluorescent intercalator displacement; conditions: 10 mM NaCl, 10 mM Tris-HCl pH 7.2, 25 °C
[2] = tested on: kanamycin-binding DNA aptamer (DNA, aptamer) TGGGGGTTGAGGCTAAGCCGA; experiment: fluorescence enhancement; conditions: 10 mM NaCl; 10 mM Tris-HCl pH 7.2, 25 °C; excitation 501 nm, emission 530 nm
[3] = tested on: Mut1 (DNA, aptamer) TGGGGGTTGAAACTAAGCCGA; experiment: fluorescence enhancement; conditions: 10 mM NaCl; 10 mM Tris-HCl pH 7.2, 25 °C; excitation 501 nm, emission 530 nm
[4] = tested on: Mut2 (DNA, aptamer) TGGAAATTGAGGCTAAGCCGA; experiment: TO fluorescent intercalator displacement; conditions: 10 mM NaCl; 10 mM Tris-HCl pH 7.2, 25 °C; TO displaced; affinity comparable to parent aptamer
[5] = TO tracer 3.5:1 to DNA, tested at 20 µM

| Structure (SMILES) | binding [1, 5] | further results |
| --- | --- | --- |
| CN(C)[C@@H]1C(O)=C(C(N)=O)C(=O)[C@@]2(O)C(O)=C3C(=O)c4c(O)ccc(Cl)c4[C@@](C)(O)[C@H]3C[C@@H]12 | no |  |
| CN1C(=Cc2cc[n+](C)c3ccccc23)Sc2ccccc21 |  | binding [2]: yes; binding [3]: weak |
| NC[C@H]1O[C@H](O[C@H]2[C@H](O)[C@@H](O[C@H]3O[C@H](CO)[C@@H](O)[C@H](N)[C@H]3O)[C@H](N)C[C@@H]2N)[C@H](O)[C@@H](O)[C@@H]1O |  | binding ([1]; TO displaced, kanamycin 0.1-100 µM): yes; binding [4]: yes |
| CN[C@@H]1[C@H](O[C@H]2[C@H](O[C@H]3[C@H](O)[C@@H](O)[C@H](N=C(N)N)[C@@H](O)[C@@H]3N=C(N)N)O[C@@H](C)[C@]2(O)C=O)O[C@@H](CO)[C@H](O)[C@H]1O | no |  |
| O=C(N[C@H](CO)[C@H](O)c1ccc([N+](=O)[O-])cc1)C(Cl)Cl | no |  |
| COc1cc(NS(=O)(=O)c2ccc(N)cc2)nc(OC)n1 | no |  |
| CC1(C)S[C@@H]2[C@H](NC(=O)[C@H](N)c3ccccc3)C(=O)N2[C@H]1C(=O)O | no |  |
| CN(C)[C@@H]1C(=O)C(C(N)=O)=C(O)[C@@]2(O)C(=O)C3=C(O)c4c(O)cccc4[C@@](C)(O)[C@H]3[C@H](O)[C@@H]12 | no |  |
